Results on one substance are retold here after PMC2131784, “Inhibition of Chk1 Kills Tetraploid Tumor Cells through a p53-Dependent Pathway” (PLoS ONE, 2007).

The target of the test is T1, Chk1 (checkpoint kinase-1) (Homo sapiens, UniProt O14757).
T1 construct: gene CHEK1; recombinant Chk1
T1 sequence (O14757 1-476): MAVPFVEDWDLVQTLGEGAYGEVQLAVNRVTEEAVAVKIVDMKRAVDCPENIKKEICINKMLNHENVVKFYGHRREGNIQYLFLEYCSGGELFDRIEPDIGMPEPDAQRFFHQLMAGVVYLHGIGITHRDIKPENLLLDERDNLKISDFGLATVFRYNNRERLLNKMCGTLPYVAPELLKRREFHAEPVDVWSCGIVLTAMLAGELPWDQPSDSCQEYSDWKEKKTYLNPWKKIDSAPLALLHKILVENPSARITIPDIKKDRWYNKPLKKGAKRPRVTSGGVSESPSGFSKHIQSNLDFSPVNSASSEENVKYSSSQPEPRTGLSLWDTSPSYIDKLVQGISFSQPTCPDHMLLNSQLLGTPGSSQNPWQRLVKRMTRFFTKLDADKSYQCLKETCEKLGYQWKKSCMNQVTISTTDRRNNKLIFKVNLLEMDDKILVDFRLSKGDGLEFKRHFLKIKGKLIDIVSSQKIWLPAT
The experiment in a line: in vitro inhibition of recombinant Chk1 (assay details not given). In kind it is biochemical.

For orientation: IC50 means the concentration needed to halve the response being measured. For the substance SD1825, the IC50 was 29 nM.
